Reference: patent US6518315B1, “Medicinal uses of phenylaikanols and derivatives” (The University of Sydney, priority 1997, dated 2003)

Legend:
rat mesenteric artery = test: Vasodilation on rat mesenteric artery; details: for potency in relaxing rat mesenteric artery / vascular bed, in words: preliminary investigation
Source text: The proposed mechanism of neuropeptide release by 1-(4-hydroxy-3-methoxyphenyl)dodecan-3-ol, similar to that of capsaicin, was supported by studies in blood vessels. […] This contrasts with capsaicin which has similar activity in Guinea pig atria (force and rate) and relaxing rat mesenteric artery.

[1] = test system: capsaicin-sensitive DRG neuronal cells; test: [Ca^2+]i transients in DRG neuronal cells in culture; type: cell-based, rat; details: for Peak [Ca^2+]i (Average ± SD): 10 μM applied for 1 min, 2 mM Ca^2+
Source text: Effect of Gingerol Analogues Towards Rat Dorsal Root Ganglia
Capsaicin, the pungent component in peppers of the Capsicum genus, family Solanaceae, has the ability to excite a subset of sensory neurons, which include polymodal nociceptors and warm thermoceptors (Fitzgerald, 1983) by opening non-selective cation channels that are permeable to Na^+, K^+, and Ca^2+ (Bevan and Szolcsanyi, 1990). It has been shown that capsaicin evoked a concentration-dependent rise in [Ca^2+]i in cultured dorsal root ganglion neurons. The duration of the elevation of [Ca^2+]i depended on the concentration of capsaicin (Choleswinski, et al., 1993). In this investigation peak [Ca^2+]i transient measurements are used as a model for testing gingerol analogues.
DRG from neonatal (3-5 days old) rat or adult Sprague-Dawley rats were incubated in Hanks CMF saline with 0.05% collagenase and 0.25% trypsin for 25 min at 37° C. Individual cells were obtained by trituration with fire polished Pasteur pipettes of diminishing diameters. Neurones were isolated from the cell suspension in 30% Percoll and then plated on collagen coated coverslips or in 24-well plates, then cultured in neurobasal medium with B27 supplement, 50 ng/ml 2.5 S nerve growth factor, 2 mM 1-glutamine and 100 U/ml penicillin/streptomycin. Cultures were maintained at 37° C. with 5% CO2. 30% Percoll increases the percentage of capsaicin-sensitive DRG neurones up to 70%. For peak [Ca^2+]i transients measurements, cells on coverslips were incubated with 5 μM Fura-2 AM for 30 min at 37° C. The coverslips were then mounted on a chamber attached to a fast sample application perfusion system which allows changing solutions in the second range. Recordings were made on the stage of a Nikon Diaphot inverted microscope fitted with a Nikon 40×Fluo (NA 0.85) DL Ph3 or 40×Fluo (NA 1.3) oil objective. [Ca^2+]i was calculated from dual excitation wavelength (340/380 nm) fluorescence measurements following an intracellular calibration procedure by the Grynkiewicz equation, using MCID M2/M4 v.3.0 (Imaging Res. Inc.) software. Cells were continuously perfused with a solution consisting of 140 mM NaCl, 2 mM CaCl2, 5 mM KCl, 20 mM HEPES, 10 mM glucose, pH 7.4. To study KCl evoked depolarisation, 50 mM NaCl was replaced by equimolar KCl. Cytoplasmic localisation of Fura-2 was tested with the Mn^2+ quenching technique (Dedov and Roufogalis, 1998). All experiments were performed at room temperature (20-23° C.).
Typical changes in [Ca^2+]i upon depolarisation were evoked by 50 mM KCl and by application of 1 μM capsaicin; both were applied for 30 sec. Capsaicin-evoked peak [Ca^2+]i transients are characterised by a fast rise and long-steady state [Ca^2+]i clearance from the cytoplasm. In capsaicin-sensitive cells the half-time of cytoplasmic Ca^2+ clearance was proportional to the amplitudes of peak [Ca^2+]i transients.
To examine the effect of gingerol derivatives, one or several compounds in succession at a concentration of 10 μM were applied for 1 min to the DRG neuronal cells followed by washing out for 4 min with physiological solution. To the capsaicin-sensitive cells, 10 μM capsaicin and 50 mM KCl were applied, respectively, to confirm the viability of the cells. In addition, morphological appearances of the cells were also examined at the end of experiment. […]

guinea pig atria = test: Organ bath assay, isolated guinea pig atria (rate and force of contraction)
Method: Male guinea pigs, 3-4 weeks old, were killed by rapid cervical dislocation without induced anaesthesia. Then, the guinea pigs were dissected to isolate the atria which were immediately mounted vertically in an organ bath containing Krebs-Henseleit solution oxygenated with carbogen.
One gram tension was applied to the atria and the base line continuously adjusted until it was stable for 20 mins. The rate and force of contraction were recorded using Mac Lab equipment.
Test substances in DMSO were assayed to a maximum concentration of 50 μM at a final concentration of 2.5% of DMSO.

[2] = target: T1, Ca^2+-ATPase of dog cardiac SR (Canis lupus familiaris, UniProt O46674); test: Sarcoplasmic reticulum Ca^2+-ATPase assay; type: biochemical; details: 0 μM = 100
T1 construct: SR membrane (75 μg/ml): 24 μl; from tissue; host or cells: dog cardiac sarcoplasmic reticulum membranes
Method: A. Sarcoplasmic Reticulum Ca^2+-ATPase Assay
SR membrane (75 μg/ml): 24 μl
Test substance: appropriate volumes to give a dose-effect concentration
Incubation buffer: up to 240 μl
A portion at each concentration (54 μl) was aliquoted into 4 designated wells of the microplate (two of four wells were controls). Each well was mixed with ATP solution (20 mM, 6 μl), except the controls, using an 8 channel pipette. The controls were assayed in the absence of ATP or calcium.
The plate was incubated with the lid on, for 30 min at 37° C., colour reagent (160 μl) was then added and mixed with citrate solution (34%, 30 μl). The plate was developed at room temperature for 30 min then absorbance at 655 nm was read from the microplate reader. The Ca^2+-ATPase activity was quantitated, from a Pi standard curve, as concentration of liberated inorganic phosphate.
Stock solutions (10 mM) of test substance were prepared in DMSO, then series dilutions were made either in DMSO or in 1M HEPES to produce the dose-response concentrations. The maximum concentration of DMSO in the final assay solution was 2.5%.
Each concentration of test substance was assayed in duplicate in the presence and absence of ATP or calcium. Phosphate standards are run on each plate as follows:
Effect of gingerols and their derivatives on the Ca^2+-ATPase of dog cardiac SR.

cardiac Purkinje fibres = test: Cardiac electrophysiology on Purkinje fibres; set-up: species or system dog; details: up to 10 μM
Method: Cardiac Electrophysiological Activities of Gingerol and its Analogue
The basic cardiac electrophysiological properties were assessed using cardiac Purkinje fibres obtained from adult mongrel dogs.
Electrophysiology was carried out on dog heart purkinje fibre to test for potential arrhythmia. […] At high concentration (50 μM), however, [8]-gingerol reduced approximate 80% and 50% of action potential duration at 50% and 90% repolarisations respectively. Whereas the analogue reduced 75% and 30% respectively.

[3] = test system: brine shrimp (Artemia salina Leach); test: Brine shrimp assay; type: in vivo
Source text: Toxicity—Brine Shrimp Assay
The brine shrimp assay procedure determines LC50 values of active compounds. Activities of a broad range of known active compounds are manifested as toxicity to brine shrimp (Artemia salina Leach). There are many applications of the assay including analysis of toxic substances, anaesthetics, morphine-like substances and cocarcinogenicity of phorbol esters.
DMSO (dimethyl sulfoxide) was the solvent of choice because of its good solubilising properties and also because the substances used in the ATPase inhibition assays were already prepared with DMSO.
The method for testing solvent toxicity used was basically that reported by J L McLaughlin in Methods of Plant Biochemistry (1991), vol. 6 (K Hostettman, ed.), Academic Press, London, 1-32. DMSO solutions of the substances to be tested were added directly to the vials containing the brine shrimp. As the concentration of DMSO is that we wished to use was higher than the recommended 1% v/v testing of the toxicity of the DMSO was therefore necessary. The concentrations of DMSO tested on the shrimp, along with the results from the assay which was done in duplicate are listed below.
Brine shrimp toxicity was assayed, except for some minor modifications, according to the method of McLaughlin et al as reported in Brine Shrimp: A convenient bioassay for active plant constituents, B N Meyer, N R Ferrigni, J E Putnam, L B Jacobsen, D E Nichols and J L McLaughlin in Planta Medica (1982), 45, 31-34 and Crown gall tumours on potato discs and brine shrimp lethality: Two simple bioassays for higher plant screening and fractionation. J L McLaughlin. Methods of Plant Biochemistry (1991), vol. 6 (K Hostettman, ed.), Academic Press, London, 1-32. Ten shrimp were transferred to each of the vials and the volume adjusted to 4.9 mL. Each dose was performed in triplicate, including the control. In quick succession, the appropriate volume of additional DMSO for each dose, required to achieve a final concentration of 2%, was added before the appropriate volume of test solution. The vials were gently mixed and the time noted. After 24 hours, the number of survivors were counted and % mortality was determined. The test compounds were assayed at concentrations of 100 μM, 25 μM, 5 μM, 1 μM and 0.2 μM (and where appropriate concentrations of 0.04 μM and 0.008 μM).
The brine shrimp were able to survive without food in the vials over the 24 hour period and were therefore not fed.
The dose-response curves were constructed using the Sigmaplot computer program and the LC50 value was calculated from the intersection point of the curve and the 50% mortality line. The LC50 values were expressed in both μM and μg/mL.
For substances with low toxicity, the greater sign “>” indicated the highest concentration at which the assay was carried out as precipitation of the substances occurred above that concentration.

T1 sequence (O46674 whole entry): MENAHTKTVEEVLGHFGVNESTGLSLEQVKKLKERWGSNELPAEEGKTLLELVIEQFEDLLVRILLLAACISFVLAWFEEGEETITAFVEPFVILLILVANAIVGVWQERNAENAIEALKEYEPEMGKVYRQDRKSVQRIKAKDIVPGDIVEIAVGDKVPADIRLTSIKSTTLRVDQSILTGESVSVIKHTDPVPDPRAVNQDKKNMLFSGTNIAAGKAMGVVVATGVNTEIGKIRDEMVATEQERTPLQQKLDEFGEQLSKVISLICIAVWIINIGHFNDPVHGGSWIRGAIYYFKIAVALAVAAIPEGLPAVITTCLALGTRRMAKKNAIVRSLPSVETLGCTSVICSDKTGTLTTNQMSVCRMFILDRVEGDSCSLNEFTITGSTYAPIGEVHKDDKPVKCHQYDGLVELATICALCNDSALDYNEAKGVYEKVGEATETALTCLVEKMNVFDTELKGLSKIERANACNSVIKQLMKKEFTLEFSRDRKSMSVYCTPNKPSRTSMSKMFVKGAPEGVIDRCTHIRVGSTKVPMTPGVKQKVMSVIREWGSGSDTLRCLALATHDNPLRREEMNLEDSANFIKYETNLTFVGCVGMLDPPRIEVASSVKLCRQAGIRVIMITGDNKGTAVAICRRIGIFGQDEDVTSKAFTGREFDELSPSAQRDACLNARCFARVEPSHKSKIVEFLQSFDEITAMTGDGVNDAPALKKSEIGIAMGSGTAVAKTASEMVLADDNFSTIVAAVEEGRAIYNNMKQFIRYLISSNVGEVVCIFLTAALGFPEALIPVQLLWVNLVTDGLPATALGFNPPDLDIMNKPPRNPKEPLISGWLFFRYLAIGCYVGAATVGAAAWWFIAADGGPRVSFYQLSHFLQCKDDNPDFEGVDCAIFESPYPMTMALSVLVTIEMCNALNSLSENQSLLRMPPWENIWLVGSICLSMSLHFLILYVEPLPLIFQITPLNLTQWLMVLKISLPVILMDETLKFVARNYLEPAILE

CCCCCCCCCC(=O)CCc1ccc(O)c(OC)c1 [[8]-paradol, 1-(4-hydroxy-3-methoxyphenyl)dodecan-3-one, reference compound]
potency in relaxing rat mesenteric artery / vascular bed, in words (rat mesenteric artery): showed potency
Peak [Ca^2+]i (Average ± SD) [1]: 200 nM

CCCCCCCCC(C)(O)CCc1ccc(O)c(OC)c1 (centres unmarked) [3-methyl-1-(4-hydroxy-3-methoxyphenyl)undecan-3-ol]
Peak [Ca^2+]i (Average ± SD) [1]: 0 nM

CCCCCCCC(O)CCCCc1ccc(O)c(OC)c1 (centres unmarked) [1-(4-hydroxy-3-methoxyphenyl)dodecan-5-ol]
HEART RATE (chronotropic activity), result in words (guinea pig atria; assayed to a maximum of 50 μM): ↑weakly
Peak [Ca^2+]i (Average ± SD) [1]: 0 nM

CCCCCCCCCC(O)C(=O)c1ccc(O)c(OC)c1 (centres unmarked) [2-hydroxy-1-(4-hydroxy-3-methoxyphenyl)undecan-1-one]
melting point: 78 to 80 °C

CCCCCCCCCC(O)CCc1ccc(O)c(OC)c1 (single isomer, unassigned) [enantiomer-1, 1-(4-hydroxy-3-methoxyphenyl)dodecan-3-ol]
EC50 (rat mesenteric artery; Rattus norvegicus, arteries 200-300 μm, precontracted with endothelin, read-out: EC50, relaxation of small arteries from rat mesentery): 500 nM

CCCCCCCC(=O)CC(O)CCc1ccc(O)c(OC)c1 (centres unmarked) [3-hydroxy-1-(4-hydroxy-3-methoxyphenyl)dodecan-5-one]
potency in relaxing rat mesenteric artery / vascular bed, in words (rat mesenteric artery): showed potency

CCCCCCCC(O)CC(=O)C=Cc1ccc(O)c(OC)c1 (centres unmarked) [[8]-dehydrogingerol, 5-hydroxy-1-(4-hydroxy-3-methoxyphenyl)dodecan-1-ene-3-one, reference compound]
time for tension to reach maximum after addition of a dose (guinea pig atria): a few mins

C[C@H]1O[C@@H](O[C@H]2[C@@H](O)C[C@H](O[C@H]3[C@@H](O)C[C@H](O[C@H]4CC[C@@]5(C)[C@H](CC[C@@H]6[C@@H]5C[C@@H](O)[C@]5(C)[C@@H](C7=CC(=O)OC7)CC[C@]65O)C4)O[C@@H]3C)O[C@@H]2C)C[C@H](O)[C@@H]1O [digoxin, reference compound]
time for tension to reach maximum after addition of a dose (guinea pig atria): a few mins

CCCCCCCC(=O)CCCCc1ccc(O)c(OC)c1 [1-(4-hydroxy-3-methoxyphenyl)dodecan-5-one]
SR Ca^2+-ATPase activity ([2]; 5 μM): 113
SR Ca^2+-ATPase activity ([2]; 10 μM): 136
SR Ca^2+-ATPase activity ([2]; 25 μM): 158
SR Ca^2+-ATPase activity ([2]; 50 μM): 126
SR Ca^2+-ATPase activity ([2]; 100 μM): 87
SR Ca^2+-ATPase activity ([2]; 200 μM): 18

CCCCCCCC(O)CC(=O)CCc1ccc(O)c(OC)c1 (centres unmarked) [[8]-gingerol, 5-hydroxy-1-(4-hydroxy-3-methoxyphenyl)dodecan-3-one, reference compound]
time to increased cardiac contractility after addition of the drug (guinea pig atria): 15 s
effect on rate of depolarization, amplitude and duration of action potential (50% and 90%) (cardiac Purkinje fibres): insignificant effect

CCCCCCCC(O)CC(=O)CCc1ccc2c(c1)OCO2 (centres unmarked) [5-hydroxy-1-(3,4-methylenedioxyphenyl)dodecan-3-one]
potency in relaxing rat mesenteric artery / vascular bed, in words (rat mesenteric artery): showed potency

C[S+](C)[O-] [DMSO, dimethyl sulfoxide]
% Deaths ([3]; 1 % v/v): 0%
% Deaths ([3]; 2 % v/v): 0%
% Deaths ([3]; 3 % v/v): 0%
% Deaths ([3]; 4 % v/v): 0%
% Deaths ([3]; 5 % v/v): 9%
% Deaths ([3]; 7 % v/v): 12%
% Deaths ([3]; 9 % v/v): 18%
% Deaths ([3]; 11 % v/v): 57%
% Deaths ([3]; 13 % v/v): 96%
% Deaths ([3]; 15 % v/v): 100%
% Deaths ([3]; 20 % v/v): 100%
% Deaths ([3]; 25 % v/v): 100%

COc1cc(CNC(=O)CCCC/C=C/C(C)C)ccc1O [Capsaicin, reference compound]
evoked [Ca^2+]i transients in Ca^2+-free medium or with ruthenium red ([1]; Ca^2+-free medium or ruthenium red (1 μM)): abolished or greatly diminished
